Measurements taken from patent publication US20230123863A1, “A GLIA CELL AND NEURON CO-CULTURE SYSTEM AND METHOD” (National Yang-Ming University, priority 2020, published 2023).

Key:
Oligodendrocytes = assay: excitotoxic NMDA treatment of oligodendrocytes in GN mix culture (RIP/NF200 staining); type: cell-based, mouse; conditions: NM:GCM 1:1 medium, 5 μM NMDA at 14 DIV for 24 hour
Description: Oligodendrocytes obtained from mouse primary neonatal brain cells cultivated using the GN culture compositions provided in table 4 were treated with 5 μM NMDA at 14 DIV for 24 hour.
The cell nuclei are characterized by immunostaining shown in blue. […] Moreover, the response of oligodendrocytes to excitotoxic NMDA treatment can further mimic excitotoxicity-induced demyelination.

[1] = biological target: T1, aryl hydrocarbon receptor (AHR) (Mus musculus, UniProt P30561); conditions: WT mice, cited from earlier work
T1 construct: the brains of adult mice were used to study the effect of aryl hydrocarbon receptor modulation; from tissue; host or cells: adult mouse brain, peri-infarct cortex (in vivo)
T1 sequence (P30561 10-848): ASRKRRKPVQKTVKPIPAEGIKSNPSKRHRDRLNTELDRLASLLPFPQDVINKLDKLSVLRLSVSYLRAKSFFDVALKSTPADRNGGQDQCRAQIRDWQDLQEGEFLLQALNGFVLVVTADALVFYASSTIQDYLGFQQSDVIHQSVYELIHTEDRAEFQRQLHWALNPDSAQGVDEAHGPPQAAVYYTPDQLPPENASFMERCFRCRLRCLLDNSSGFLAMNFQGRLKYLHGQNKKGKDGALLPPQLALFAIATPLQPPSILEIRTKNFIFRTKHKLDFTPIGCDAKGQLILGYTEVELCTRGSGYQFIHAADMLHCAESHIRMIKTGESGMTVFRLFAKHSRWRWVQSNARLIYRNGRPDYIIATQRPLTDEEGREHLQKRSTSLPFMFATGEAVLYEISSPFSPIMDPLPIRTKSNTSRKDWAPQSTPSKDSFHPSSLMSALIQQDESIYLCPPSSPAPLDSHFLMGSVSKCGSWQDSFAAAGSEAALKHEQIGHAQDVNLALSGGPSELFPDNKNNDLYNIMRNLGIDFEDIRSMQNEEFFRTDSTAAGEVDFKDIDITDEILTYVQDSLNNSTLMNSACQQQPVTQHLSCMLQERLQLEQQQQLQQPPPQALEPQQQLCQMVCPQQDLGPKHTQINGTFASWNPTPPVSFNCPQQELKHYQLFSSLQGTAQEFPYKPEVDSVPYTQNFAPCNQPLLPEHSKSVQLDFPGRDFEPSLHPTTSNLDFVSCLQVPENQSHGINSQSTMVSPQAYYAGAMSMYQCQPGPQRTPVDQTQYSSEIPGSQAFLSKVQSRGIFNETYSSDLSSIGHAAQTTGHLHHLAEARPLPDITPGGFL

[2] = tested on: rat cerebral cortex cells; assay: LPS neuroinflammation in cerebral cortex cells cultured in the media of Table 3; type: cell-based; conditions: for percentages of MAP2 positive cells in the total population (neurons): 1 μg/mL LPS for 24 hours on day 13
Description: The efficacies of simulating in vivo cell morphology, cell interactions and responses to stimuli in vitro using mGNCM of different ratios of modified neuron medium (mNM) and glia culture medium (GCM) were compared, 1:1:, 2:1 and GCM only groups, and the GCM only group comprising only GCM and 10% FBS as shown in Table 3 above.
The effects of neuroinflammation simulation of rat cerebral cortex cells grown in vitro using the three embodiments of mGNCM of Table 3 were examined. Cells obtained from rat cerebral cortex were cultured in vitro for 13 days using the three culture media above, then treated with 1 μg/mL of lipopolysaccharides (LPS) for 24 hours on day 13 to trigger inflammation. Following LPS treatment, immunostaining was performed to observe cell population, morphology, and response to inflammatory stimulus.
The immunostaining images of FIG. 5 show neuronal population and response to LPS stimulation, wherein CTL represents control groups (not subjected to LPS treatment) and LPS represents groups treated with LPS to induce neuroinflammation. The images show astrocyte cytoskeleton marked with GFAP and colored in red, neuron dendrites marked with MAP2 and colored in green, as well as cell nuclei marked with DAPI and colored in blue. FIGS. 5A1-5A3 and 5B1-5B3 show cells cultured with GCM only, FIGS. 5C1-5C3 and 5D1-5D3 show cells cultured with 1:1 mNM and GCM, while FIGS. 5E1-5E3 and 5F1-5F3 show cells cultured with 2:1 mNM and GCM. The GCM only group comprises fewer neurons, and the cells are smaller and unhealthier in both CTL and LPS treatment groups.

[3] = tested on: cells extracted from rat cerebral cortex; assay: LPS neuroinflammation and cell type population in glia cell and neuron co-culture in the media of Table 4; type: cell-based
Description: To further examine the effects of various embodiments of mGNCM with different ratios of mNM and GCM of the present invention on cell type population and morphology of rat glia cells and neurons co-culture, six cell culture media were prepared to the specifications of Table 4.
On postnatal day 0 (P0), cells extracted from rat cerebral cortex were inoculated in each of the cell culture media of Table 4. Following 14 days of in vitro cultivation, immunostaining was performed on the control groups (CTL) to aid in the observation of cell type ratios, specifically of neurons, astrocytes, and microglia, and oligodendrocytes as well as cell morphology. Cultures of the LPS groups (LPS) were subjected to inflammatory stimulation via 1 μg/mL LPS at 13 days in vitro. After another 24 hours, the LPS groups were subjected to immunostaining as well, for the observation of cell morphology and cell count.

mouse hippocampi = assay: intraperitoneal LPS injection, astrocyte and microglia plasticity in hippocampi; type: in vivo; conditions: LPS i.p. for 7 days at 3 mg/kg body weight per injection, vs saline
Description: To validate the results of in vitro LPS treatment of the present invention, LPS was injected intraperitoneally in mice for 7 days at 3 mg/kg body weight per injection and the astrocyte and microglia plasticity in mouse hippocampi examined. […] Astrocytes were marked with GFAP and colored in green, while cell nuclei were marked with DAPI and colored in blue.
Microglia were marked with Iba-1 and colored in green, while cell nuclei were marked with DAPI and colored in blue.

[4] = tested on: Primary rat cortical GN mix cultures; assay: NMDA-induced neurotoxicity in primary cortical glia-neuron (GN) mix culture, MAP2 and TUNEL staining; type: cell-based; conditions: 9 DIV, 30 min pretreatment with 0.1 μM 14,15-EET or 10 μM AUDA, 24 h
Description: Primary cortical NE cultures were prepared from embryonic day 17 SD fetal rats. The cultures were maintained in Neurobasal™ medium, and 9-10 days in vitro (DIV) culture was used for the study. Primary astrocyte cultures were prepared from SD rat pups at P1-2, with the purified astrocytes grown in 50% DMEM/50% Neurobasal™ medium containing heparin-binding EGF-like growth factor (HBEGF) or GNCM wherein GCM and NM are at a ratio of 1:1. Primary glia-neuron mix cultures were prepared from P0 rat brains. The harvested cerebral cortex was mechanically triturated in glia culture medium (GCM), comprising DMEM supplemented with 10% FBS. The mixture was stationed at room temperature for 1 minute, and the supernatant centrifuged at 1,500 rpm to obtain the cell pellet. The pellet was resuspended in GCM and seeded onto 24-well plates coated with poly-L-lysine (0.1 mg/mL). The culture medium was replaced with an embodiment of the GNCM medium of the present invention comprising a 1:1 mixture of GCM and B-27-containing Neurobasal™ 1 hour after the initial seeding.
The day of cell plating was considered as 0 DIV, and 9-10 DIV cultures were used for the experiments.
Primary rat cortical GN mix and NE cultures at 9 days in vitro were pretreated with 0.1 μM 14,15-EET, 10 μM 12-(3-adamantan-1-yl-ureido)-dodecanoic acid (AUDA), or vehicle for 30 min, and then treated with or without 14,15-epoxyeicosa-5(Z)-enoic acid (14,15-EEZE) (EZ) or N-methyl-D-aspartate (NMDA). Representative immunofluorescent images of MAP2 and TUNEL staining in GN mix and NE cultures were treated as indicated for 24 h. Total cell nuclei were counterstained with DAPI. Scale bar=50 μm.
Neuron dendrites were marked with MAP2 and colored in red, cell nuclei were marked with DAPI and colored in blue, while cell death was marked with TUNEL and colored in green.
Both MAP2^+ neurite density and TUNEL^+ cells were normalized by the total DAPI number in each quantified microscopic field.

[5] = tested on: dorsal hippocampus of male SD adult rats; assay: kainic acid i.c.v. injection-induced hippocampal damage, NeuN, MAP2 and GLT-1 immunostaining; type: in vivo, rat
Description: To validate the in vitro results, the effect of sEH inhibition on neuronal loss in the hippocampus after excitotoxic insult was investigated in vivo. First examined was the effect of CNS administration of AUDA on kainic acid (KA), an epileptic seizure-inducing substance, i.c.v. injection-induced hippocampal damage in male SD adult rats. The extent of neuronal damage in the dorsal hippocampus was examined 24 h after the KA injection by immunostaining with NeuN and MAP2 for neuronal nuclei and dendrites, respectively.
Eight-week-old male SD rats were subjected to unilateral i.c.v. injection of saline, KA, or KA with the sEH inhibitor AUDA. Rat brains were harvested 24 h after the injection for immunohistochemistry.
NeuN^+ cells of each hippocampal subregion were determined by counting the number of NeuN^+/DAPI^+ cells and then normalized with respective saline treatment group. MAP2 area was determined by the percentage of the immunoreactive area in each hippocampal region of interest and then normalized with the respective saline treatment group. […] Scale bar=100 μm. When compared with FIGS. 20-23, it can be seen that the results of in vivo trials were more similar to those of the GN culture than the NE culture.
FIG. 27 is a quantitative analysis of images in FIG. 25. GLT-1 area was determined by the percentage of the immunoreactive area in each hippocampal region of interest and then normalized with the respective saline treatment group. Note that GLT-1 immunoreactivity was depleted in the stratum pyramidale (SP) and stratum lucidum (SL) layers of CA3 in the KA treatment group, and the effect was attenuated by the AUDA pretreatment.

[6] = TMF 5 mg/kg/day intraperitoneally, 48 h after MCAO
[7] = all groups except for the GCM only group, 1 μg/mL LPS, 24 hours
[8] = DGh and CA3, unilateral i.c.v. injection, 24 h after injection
[9] = DGh and CA3, KA i.c.v. vs saline, 24 h

Compound: CN[C@H](CC(=O)O)C(=O)O [NMDA, N-methyl-D-aspartate]
- oligodendrocyte process extension and arborization (Oligodendrocytes): disrupts

Compound: COc1ccc(-c2cc(=O)c3cc(OC)ccc3o2)c(OC)c1 [TMF, 6,2′,4′-trimethoxyflavone]
- GFAP-positive astrogliosis at the peri-infarct cortex after MCAO [1, 6]: markedly decreased
- Iba1-positive microgliosis at the peri-infarct cortex after MCAO [1, 6]: markedly decreased
- AHR immunoreactivity colocalized within Iba1-positive microglia and GFAP-positive astrocytes after MCAO ([1]; TMF-treated vs vehicle-treated, peri-infarct cortex): markedly decreased

Compound: lipopolysaccharides [LPS]
- astrocyte hypertrophy (GFAP) ([2]; 1:1 group and 2:1 group, 1 μg/mL LPS for 24 hours): can be found
- microglia cell density and cell size (Iba1) ([2]; 1:1 group, 1 μg/mL LPS for 24 hours): marked increase
- percentages of MAP2 positive cells in the total population (neurons) ([2]; 1:1 group): induces neuronal loss
- percentages of MAP2 positive cells in the total population (neurons) ([2]; GCM only and 2:1 groups): not affected in this way
- astrocyte hypertrophy (GFAP) ([2]; GCM only group, 1 μg/mL LPS for 24 hours): not observed
- Iba1 positive area per cell, control vs LPS groups ([3]; 1:1, 2:1, and 4:1 groups, 1 μg/mL LPS, 24 hours): significant differences
- percentage of neurons in total cells (MAP2-circled cells in total DAPI) ([3]; 2:1 mGNCM group, 1 μg/mL LPS, 24 hours): significant neuronal loss
- microglia morphology (Iba1) [3, 7]: induces microglial hypertrophy (microgliosis)
- percentage of neurons in total cells (MAP2-circled cells in total DAPI) [3, 7]: reduced
- oligodendrocyte (OL) cell density ([3]; different groups of GN mix cultures, 1 μg/ml LPS): does not affect
- percentage of astrocytes in total cells (GFAP-circled cells in total DAPI) ([3]; groups of Table 4, 1 μg/mL LPS, 24 hours): does not cause significant proliferation or death of astrocytes
- oligodendrocyte process shrinkage ([3]; mNM:GCM 0.5:1 and 1:1 media, 1 μg/ml LPS): can be observed
- percentage of microglia in total cells (Iba1 positive cells in total DAPI) ([3]; mNM:GCM 1:1 medium only, 1 μg/mL LPS, 24 hours): induces significant microglia proliferation
- microglia number (Iba1 images) ([3]; mNM:GCM 2:1 co-culture system, 1 μg/mL LPS, 24 hours): induces an increase of microglia
- astrocyte morphology (GFAP) ([3]; media of Table 4, 1 μg/mL LPS at 13 DIV, 24 hours): induces astrocyte hypertrophy and process arborization
- astrocyte plasticity (GFAP) in hippocampal CA1 and CA3 (mouse hippocampi): induced astrocyte hypertrophy and proliferation
- microglia plasticity (Iba-1) in hippocampal CA1 (mouse hippocampi): induced microglial hypertrophy and proliferation

Compound: O=C(O)CCCCCCCCCCCNC(=O)NC12CC3CC(CC(C3)C1)C2 [AUDA, 12-(3-adamantan-1-yl-ureido)-dodecanoic acid]
- NMDA-induced MAP2+ neurite reduction [4]: significantly attenuated
- NMDA-induced cell death (TUNEL+ cells) [4]: significantly attenuated
- KA-induced MAP2+ dendrite damage [5, 8]: significantly attenuated
- KA-induced NeuN+ cell loss [5, 8]: significantly attenuated
- KA-induced depletion of GLT-1 immunoreactivity ([5]; SP and SL layers of CA3, AUDA pretreatment): attenuated

Compound: C=C(C)[C@H]1CN[C@H](C(=O)O)[C@H]1CC(=O)O [KA, kainic acid]
- MAP2+ dendrite area [5, 9]: significantly reduced
- NeuN+ neurons [5, 9]: significantly reduced
- GLT-1 immunoreactivity ([5]; SP and SL layers of CA3, KA treatment group): depleted

Compound: CCCCCC1OC1CC=CCC=CCC=CCCCC(=O)O (stereo not shown) [14,15-EET, 14,15-epoxyeicosatrienoic acid]
- NMDA-induced MAP2+ neurite reduction [4]: significantly attenuated
- NMDA-induced cell death (TUNEL+ cells) [4]: significantly attenuated
